The record followed here is the supplement of paper PMC12463676, “Small-molecule dissolution of stress granules by redox modulation benefits ALS models” (Nature Chemical Biology, 2025).

Compound in one assay: NC(=O)CCCCC1CCSS1 [lipoamide]
The assay is described as follows: thermal stability z-score vs DMSO; higher = more thermally stabilized by treatment. Conditions: HeLa, lipoamide concentration 100 µM. As for the experimental part:
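Cellular thermal proteome profiling in HeLa cells. Cells were treated with 100 µM lipoamide for 1 h, with or without 1 mM arsenate for a further 1 h, then heated to ten temperatures (37-66.3 °C), and soluble protein was quantified by TMT mass spectrometry relative to 0.1% DMSO controls. The thermal stability score (sum of log2 fold changes minus the abundance score) was transformed to a z-score; mean of n = 3 experiments.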

Compound in another assay: O=[As]([O-])(O)O.[K+] [potassium arsenate]
The assay is described as above. Conditions: HeLa; arsenate concentration 1 mM. As for the experimental part:
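Cellular thermal proteome profiling in HeLa cells treated with 1 mM arsenate for 1 h (DMSO pretreatment), heated to ten temperatures (37-66.3 °C). Soluble protein was quantified by TMT mass spectrometry relative to DMSO controls; the thermal stability score was transformed to a z-score; mean of n = 3 experiments.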

Where [1] appears, read: arsenate co-treatment: 1 mM arsenate 1 h.
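Further: each temperature applied for 3 min, abundance score taken as mean log2 fold change at the two lowest temperatures, z-score obtained by mean subtraction and division by SD.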

UniProt P51970, sequence (P51970 whole entry): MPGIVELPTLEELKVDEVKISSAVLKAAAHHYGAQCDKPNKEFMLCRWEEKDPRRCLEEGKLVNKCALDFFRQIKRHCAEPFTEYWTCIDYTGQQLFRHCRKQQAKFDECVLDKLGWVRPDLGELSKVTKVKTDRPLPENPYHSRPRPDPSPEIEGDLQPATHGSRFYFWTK
UniProt Q9H1E5, sequence (Q9H1E5 whole entry): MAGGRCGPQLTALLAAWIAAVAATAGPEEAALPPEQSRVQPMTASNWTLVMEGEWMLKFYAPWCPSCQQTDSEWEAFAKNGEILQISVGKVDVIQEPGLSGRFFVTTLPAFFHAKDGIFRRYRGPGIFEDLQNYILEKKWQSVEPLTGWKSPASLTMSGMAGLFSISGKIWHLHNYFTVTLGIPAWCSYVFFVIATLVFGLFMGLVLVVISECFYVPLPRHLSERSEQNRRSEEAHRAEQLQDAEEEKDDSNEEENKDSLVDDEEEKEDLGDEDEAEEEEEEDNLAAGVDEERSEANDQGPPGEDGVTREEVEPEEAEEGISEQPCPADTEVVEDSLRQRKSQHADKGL
UniProt Q9BTT0, sequence (Q9BTT0 whole entry): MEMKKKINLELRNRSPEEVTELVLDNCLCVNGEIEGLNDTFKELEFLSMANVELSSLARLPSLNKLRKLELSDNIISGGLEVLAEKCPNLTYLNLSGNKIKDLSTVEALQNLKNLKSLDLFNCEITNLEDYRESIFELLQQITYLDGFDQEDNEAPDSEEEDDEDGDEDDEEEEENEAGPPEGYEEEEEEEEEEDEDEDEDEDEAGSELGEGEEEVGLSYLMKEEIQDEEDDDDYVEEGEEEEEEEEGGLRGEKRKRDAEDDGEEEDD
UniProt Q9H0X9, sequence (Q9H0X9 whole entry): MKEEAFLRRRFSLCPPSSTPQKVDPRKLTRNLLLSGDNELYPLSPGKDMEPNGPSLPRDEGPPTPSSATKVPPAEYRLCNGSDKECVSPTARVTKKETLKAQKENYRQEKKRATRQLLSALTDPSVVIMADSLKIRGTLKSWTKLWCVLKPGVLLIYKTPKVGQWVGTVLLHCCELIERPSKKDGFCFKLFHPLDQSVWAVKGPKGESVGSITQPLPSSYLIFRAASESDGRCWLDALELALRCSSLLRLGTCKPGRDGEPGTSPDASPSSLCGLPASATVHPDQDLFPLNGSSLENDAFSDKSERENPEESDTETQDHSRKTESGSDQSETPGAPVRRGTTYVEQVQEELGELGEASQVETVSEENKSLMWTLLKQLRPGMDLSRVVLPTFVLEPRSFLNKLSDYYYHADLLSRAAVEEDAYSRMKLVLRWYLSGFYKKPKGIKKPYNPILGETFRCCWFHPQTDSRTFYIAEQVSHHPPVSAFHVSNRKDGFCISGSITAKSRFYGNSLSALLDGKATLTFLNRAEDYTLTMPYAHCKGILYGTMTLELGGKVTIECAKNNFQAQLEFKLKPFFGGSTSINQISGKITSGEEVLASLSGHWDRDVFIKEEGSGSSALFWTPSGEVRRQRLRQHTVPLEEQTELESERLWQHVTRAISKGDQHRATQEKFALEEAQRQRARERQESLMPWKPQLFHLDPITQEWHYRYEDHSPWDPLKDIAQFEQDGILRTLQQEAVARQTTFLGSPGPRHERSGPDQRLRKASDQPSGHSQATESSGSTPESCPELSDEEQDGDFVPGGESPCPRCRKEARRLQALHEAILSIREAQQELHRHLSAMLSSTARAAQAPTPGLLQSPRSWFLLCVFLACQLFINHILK
UniProt P12036, sequence (P12036 whole entry): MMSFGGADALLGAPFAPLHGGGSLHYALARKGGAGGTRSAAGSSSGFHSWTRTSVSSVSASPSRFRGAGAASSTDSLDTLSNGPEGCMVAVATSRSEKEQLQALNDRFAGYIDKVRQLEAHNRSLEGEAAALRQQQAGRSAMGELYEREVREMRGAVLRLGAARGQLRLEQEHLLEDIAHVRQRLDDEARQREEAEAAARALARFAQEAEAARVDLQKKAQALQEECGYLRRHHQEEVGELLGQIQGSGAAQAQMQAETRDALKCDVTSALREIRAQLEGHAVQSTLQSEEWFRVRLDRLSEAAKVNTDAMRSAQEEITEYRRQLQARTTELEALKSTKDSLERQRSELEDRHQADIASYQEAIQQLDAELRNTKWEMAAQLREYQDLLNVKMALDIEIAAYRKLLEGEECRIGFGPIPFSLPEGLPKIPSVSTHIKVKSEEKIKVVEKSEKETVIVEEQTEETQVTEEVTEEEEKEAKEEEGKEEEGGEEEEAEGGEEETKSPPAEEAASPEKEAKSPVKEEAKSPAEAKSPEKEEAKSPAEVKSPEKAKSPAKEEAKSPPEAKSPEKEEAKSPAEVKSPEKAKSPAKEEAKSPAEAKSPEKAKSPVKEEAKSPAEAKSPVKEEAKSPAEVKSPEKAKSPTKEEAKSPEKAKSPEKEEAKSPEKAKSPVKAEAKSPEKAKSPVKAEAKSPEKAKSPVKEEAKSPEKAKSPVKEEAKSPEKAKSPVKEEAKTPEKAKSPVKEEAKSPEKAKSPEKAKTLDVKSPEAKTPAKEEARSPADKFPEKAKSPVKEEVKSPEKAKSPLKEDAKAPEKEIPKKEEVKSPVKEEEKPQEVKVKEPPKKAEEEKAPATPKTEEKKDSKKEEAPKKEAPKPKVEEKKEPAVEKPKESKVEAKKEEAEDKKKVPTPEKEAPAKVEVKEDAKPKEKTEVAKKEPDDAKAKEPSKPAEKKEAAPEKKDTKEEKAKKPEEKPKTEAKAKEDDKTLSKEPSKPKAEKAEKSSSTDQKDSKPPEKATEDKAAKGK
UniProt Q8NEY1, sequence (Q8NEY1 whole entry): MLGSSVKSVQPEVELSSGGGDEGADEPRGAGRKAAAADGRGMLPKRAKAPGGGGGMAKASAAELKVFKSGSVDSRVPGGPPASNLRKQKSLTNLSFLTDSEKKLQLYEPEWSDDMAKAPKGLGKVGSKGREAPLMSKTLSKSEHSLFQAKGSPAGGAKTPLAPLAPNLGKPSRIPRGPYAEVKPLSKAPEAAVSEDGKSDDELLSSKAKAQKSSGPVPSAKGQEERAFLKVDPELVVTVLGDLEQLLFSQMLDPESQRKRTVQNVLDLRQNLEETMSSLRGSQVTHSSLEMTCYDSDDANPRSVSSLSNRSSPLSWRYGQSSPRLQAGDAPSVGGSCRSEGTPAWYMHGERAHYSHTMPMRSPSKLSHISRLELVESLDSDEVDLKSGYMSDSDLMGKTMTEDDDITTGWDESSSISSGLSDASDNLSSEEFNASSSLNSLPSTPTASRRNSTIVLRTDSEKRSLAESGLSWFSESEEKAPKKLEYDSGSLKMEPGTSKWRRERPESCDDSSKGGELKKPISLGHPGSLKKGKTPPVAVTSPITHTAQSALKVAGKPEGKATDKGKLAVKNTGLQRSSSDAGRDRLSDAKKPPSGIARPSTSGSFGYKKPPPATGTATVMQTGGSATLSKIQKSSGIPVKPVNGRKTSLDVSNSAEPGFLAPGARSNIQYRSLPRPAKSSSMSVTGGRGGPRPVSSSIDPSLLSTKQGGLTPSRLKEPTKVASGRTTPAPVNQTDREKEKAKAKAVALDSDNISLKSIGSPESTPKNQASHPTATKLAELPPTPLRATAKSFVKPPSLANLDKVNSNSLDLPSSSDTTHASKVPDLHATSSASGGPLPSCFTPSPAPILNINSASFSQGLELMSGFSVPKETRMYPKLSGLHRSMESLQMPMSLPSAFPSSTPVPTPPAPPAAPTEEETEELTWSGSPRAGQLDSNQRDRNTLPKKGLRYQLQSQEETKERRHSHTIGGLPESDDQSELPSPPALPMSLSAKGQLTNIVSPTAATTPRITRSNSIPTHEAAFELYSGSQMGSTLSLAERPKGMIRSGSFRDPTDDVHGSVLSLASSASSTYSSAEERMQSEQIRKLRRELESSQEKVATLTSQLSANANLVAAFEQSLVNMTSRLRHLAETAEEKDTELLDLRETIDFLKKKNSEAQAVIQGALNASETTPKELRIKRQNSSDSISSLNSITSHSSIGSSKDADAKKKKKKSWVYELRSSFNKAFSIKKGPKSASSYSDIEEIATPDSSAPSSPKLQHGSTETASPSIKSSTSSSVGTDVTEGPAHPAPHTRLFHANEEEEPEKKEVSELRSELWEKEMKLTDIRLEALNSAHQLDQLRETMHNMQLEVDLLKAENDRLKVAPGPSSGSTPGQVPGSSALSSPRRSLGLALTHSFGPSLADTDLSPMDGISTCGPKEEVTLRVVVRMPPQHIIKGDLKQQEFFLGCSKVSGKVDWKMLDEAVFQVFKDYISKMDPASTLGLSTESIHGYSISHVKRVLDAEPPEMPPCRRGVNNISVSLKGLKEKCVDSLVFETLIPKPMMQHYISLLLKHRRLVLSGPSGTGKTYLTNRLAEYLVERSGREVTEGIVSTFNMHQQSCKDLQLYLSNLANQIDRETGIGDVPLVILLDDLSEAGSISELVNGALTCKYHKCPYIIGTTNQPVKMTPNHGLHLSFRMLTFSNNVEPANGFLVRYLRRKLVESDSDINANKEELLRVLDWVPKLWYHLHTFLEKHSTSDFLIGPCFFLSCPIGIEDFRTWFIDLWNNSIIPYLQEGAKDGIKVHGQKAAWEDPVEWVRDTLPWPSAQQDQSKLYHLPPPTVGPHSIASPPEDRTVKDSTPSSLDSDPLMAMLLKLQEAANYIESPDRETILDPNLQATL
UniProt Q86WW8, sequence (Q86WW8 whole entry): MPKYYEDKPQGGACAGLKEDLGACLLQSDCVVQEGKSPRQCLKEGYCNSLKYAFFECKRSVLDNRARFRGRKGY
UniProt Q96AG4, sequence (Q96AG4 whole entry): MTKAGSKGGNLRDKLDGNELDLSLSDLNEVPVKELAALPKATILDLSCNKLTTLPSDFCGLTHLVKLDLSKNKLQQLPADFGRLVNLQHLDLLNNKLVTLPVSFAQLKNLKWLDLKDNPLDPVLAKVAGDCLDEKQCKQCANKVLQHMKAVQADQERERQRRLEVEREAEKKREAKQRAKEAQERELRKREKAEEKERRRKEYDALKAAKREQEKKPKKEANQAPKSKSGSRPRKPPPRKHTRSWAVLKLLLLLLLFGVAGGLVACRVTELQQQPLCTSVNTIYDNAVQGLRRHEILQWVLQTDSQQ

For LRRC59 (UniProt Q96AG4), the figures for the thermal stability z-score with lipoamide (setting [1]), with lipoamide (arsenate co-treatment: none) and in the assay with potassium arsenate were -0.768, -0.195 and -1.86, respectively.

Consider NEFH (UniProt P12036), for which the thermal stability z-score in the assay with lipoamide (setting [1]) was -0.156; with lipoamide (arsenate co-treatment: none), -0.292; with potassium arsenate, 0.4.

Turning to CDK2 (UniProt P24941), the thermal stability z-score with lipoamide (setting [1]) turned out to be 1.12; in the assay with lipoamide (arsenate co-treatment: none) it was 0.288; with potassium arsenate, 0.48.

LPP (UniProt Q93052): the thermal stability z-score is -0.407 with lipoamide (setting [1]), -0.444 with lipoamide (arsenate co-treatment: none) and -5.37 with potassium arsenate.

For the target NAV1 (UniProt Q8NEY1), the thermal stability z-score with lipoamide (setting [1]) was -0.0334; with lipoamide (arsenate co-treatment: none), 0.0173; in the assay with potassium arsenate, 0.073.

As for FOXO1 (UniProt Q12778), the thermal stability z-score in the assay with lipoamide (setting [1]) is -0.211; in the assay with lipoamide (arsenate co-treatment: none), -0.123; with potassium arsenate it was 0.182.

Regarding TMX4 (UniProt Q9H1E5), the thermal stability z-score in the assay with lipoamide (setting [1]) is -1.34; in the assay with lipoamide (arsenate co-treatment: none), -1.22; with potassium arsenate it was 0.19.

Regarding ANP32E (UniProt Q9BTT0), the results for the thermal stability z-score in the assay with lipoamide (setting [1]), with lipoamide (arsenate co-treatment: none) and with potassium arsenate were -1.1, 0.32 and -4, respectively.

As for ENAH (UniProt Q8N8S7), the thermal stability z-score was -0.14 in the assay with lipoamide (setting [1]), 0.013 in the assay with lipoamide (arsenate co-treatment: none) and -0.515 with potassium arsenate.

As for THUMPD1 (UniProt Q9NXG2), the thermal stability z-score in the assay with lipoamide (setting [1]) came to 0.166; with lipoamide (arsenate co-treatment: none) it was 0.155; with potassium arsenate it was 3.08.

On to STK38 (UniProt Q15208), for which the values for the thermal stability z-score with lipoamide (setting [1]), with lipoamide (arsenate co-treatment: none) and in the assay with potassium arsenate were -0.703, -0.424 and -0.182, respectively.

On to COA5 (UniProt Q86WW8), for which the thermal stability z-score was -0.51 with lipoamide (setting [1]), -0.761 in the assay with lipoamide (arsenate co-treatment: none) and 0.0388 in the assay with potassium arsenate.

On to CDA (UniProt P32320), for which the thermal stability z-score with lipoamide (setting [1]) amounted to 0.868; with lipoamide (arsenate co-treatment: none), 1; in the assay with potassium arsenate, 1.03.

For ABCB1 (UniProt P08183), the thermal stability z-score with lipoamide (setting [1]) was 0.00691; with lipoamide (arsenate co-treatment: none), 0.00658; in the assay with potassium arsenate it was -0.039.

In the case of NDUFA8 (UniProt P51970), the thermal stability z-score in the assay with lipoamide (setting [1]) is -0.418; in the assay with lipoamide (arsenate co-treatment: none), -0.772; in the assay with potassium arsenate it was 0.0194.

On to EIF2AK4 (UniProt Q9P2K8), for which the figures for the thermal stability z-score with lipoamide (setting [1]), in the assay with lipoamide (arsenate co-treatment: none) and in the assay with potassium arsenate were 0.566, 0.141 and 2.05, respectively.

PNISR (UniProt Q8TF01): the results for the thermal stability z-score with lipoamide (setting [1]), with lipoamide (arsenate co-treatment: none) and with potassium arsenate were 1.06, 0.149 and -0.509, respectively.

For the target OSBPL5 (UniProt Q9H0X9), the thermal stability z-score is -0.28 with lipoamide (setting [1]), -0.534 with lipoamide (arsenate co-treatment: none) and -0.386 with potassium arsenate.

Turning to PRPF6 (UniProt O94906), the thermal stability z-score in the assay with lipoamide (setting [1]) is -0.136; with lipoamide (arsenate co-treatment: none), -0.0563; with potassium arsenate, -0.171.

Regarding FLVCR1 (UniProt Q9Y5Y0), the thermal stability z-score is -0.393 in the assay with lipoamide (setting [1]), -0.367 with lipoamide (arsenate co-treatment: none) and -0.43 with potassium arsenate.

LCLAT1 (UniProt Q6UWP7): the results for the thermal stability z-score in the assay with lipoamide (setting [1]), with lipoamide (arsenate co-treatment: none) and in the assay with potassium arsenate were 1.1, 0.0592 and -2.38, respectively.

As for EXOSC9 (UniProt Q06265), the thermal stability z-score with lipoamide (setting [1]) was 0.0277; with lipoamide (arsenate co-treatment: none) it was -1.24; in the assay with potassium arsenate it was -1.59.

Regarding CANT1 (UniProt Q8WVQ1), the thermal stability z-score was 0.0524 in the assay with lipoamide (setting [1]), 0.482 with lipoamide (arsenate co-treatment: none) and -0.0872 with potassium arsenate.
